Results published in patent US20200165287A1, “SALT OF (SS)-ADENOSYL METHIONINE WITH INOSITOL HEXAPHOSPHATE, AND PROCESS FOR THE PREPARATION THEREOF” (GNOSIS S.p.A., priority 2017, published 2020).

How the values were obtained:
[1] = stability test, storage at +25° C. in a thermostatic stove; format: physicochemical
Procedure: Some samples of the products obtained as described in the previous examples are subjected to stability tests, storing them at +25° C., in a thermostatic stove.
The SAMe ion content analysis (FIG. 3) and the diastereomeric purity relative to the (SS) isomer (FIG. 4) are periodically repeated, and the result is compared with the starting value for the same sample, obtaining the results reported.
The data obtained with the product obtained according to EP 1896489 and two commercial samples of SAMe, 1,4-butanedisulphate salt (SD4 Test 1) and Pates salt (batch S1S1057B), are compared.

[2] = accelerated stability test, thermostatic stove at +55° C., 5 days; format: physicochemical
Procedure: The product obtained as described in Example 6 (comprising SAMe and phytic acid) and a sample of SAMe inositol hexaphosphate obtained as described in Example 5 are subjected to an accelerated stability test, incubated in a thermostatic stove at +55° C., and the analyses are repeated after 5 days.
The samples are analysed for the following values: • SAMe ion content (total of all enantiomers) determined by HPLC and expressed as % by weight • enantiomeric purity, determined by HPLC and expressed as % of (SS) isomer • active ingredient content, calculated by multiplying the previous two values and expressed as % by weight of (SS)SAMe • overall purity, determined by HPLC as SAMe area/total area of chromatogram, expressed as area %. The figure comprises the values of all known degradation impurities.

[3] = Pharmacokinetic profile in the rat (SAMe plasma levels after oral administration by cannula); format: in vivo, Sprague Dawley rats; details: by cannula in water, 134 mg/kg and 95 mg/kg, equal SAMe ion dose, 0-24 h (FIG. 1, FIG. 2)
Procedure: 70 Sprague Dawley rats (35 male and 35 female), aged 7-9 weeks and weighing 176-200 g, were acclimatized in a cage for two weeks before the start of the treatment, maintained at +22° C. and 55% relative humidity. The rats were fed on 4RF 21 (Mucedola) feed, and weighed before the beginning and at the end of the test. At the time of treatment, 32 animals per group (16 males and 16 females) were selected from those with the most similar weights, and assigned to the two treatments.
The product was administered by cannula, dissolved in water, at two dose levels, namely 134 mg/kg and 95 mg/kg. The rats were fasted overnight before administration and for a further two hours after administration. The two equimolar doses guaranteed an equal intake of SAMe ion.
The blood levels of SAMe were assayed by taking a sample from the tail vein at fixed intervals, at times 0 (pre-administration), 0.5, 1, 1.5, 2, 4, 8 and 24 hours after administration. The blood samples were centrifuged after addition of EDTA to separate the plasma from the cell fraction. The plasma was then analysed by HPLC according to the method reported in Wise, Fullerton J. Liq. Chromatogr. […]
The SAMe plasma concentration values are also used to determine, according to the Area Under Curve (AUC) calculation, the total quantity of active ingredient absorbed, obtaining the values set out in FIG. 2.

Molecule: C[S@@+](CC[C@H](N)C(=O)[O-])C[C@H]1O[C@@H](n2cnc3c(N)ncnc32)[C@H](O)[C@@H]1O.O=P(O)(O)O[C@H]1[C@H](OP(=O)(O)O)[C@@H](OP(=O)(O)O)[C@H](OP(=O)(O)O)[C@@H](OP(=O)(O)O)[C@H]1OP(=O)(O)O [AT1003, SAMe inositol hexaphosphate]
- stability of (SS)SAMe isomer content / diastereomeric purity versus starting value (FIG. 4) [1]: stable for longer
- Purity (% area), final value ([2]; HPLC SAMe area/total area, after 5 days at +55° C.): 90.0%
- Purity (% area), starting value ([2]; HPLC SAMe area/total area, starting value): 95.98%
- degradation by isomerization of (SS)SAMe after the stress test ([2]; after 5 days at +55° C.): maintains an excess of the (SS)SAMe form
- (SS)SAMe content (active ingredient, SAMe content x enantiomeric purity), final value ([2]; after 5 days at +55° C., % by weight): 21.28%
- (SS)SAMe content (active ingredient, SAMe content x enantiomeric purity), starting value ([2]; starting value, % by weight): 26.59%

Molecule: C[S+](CC[C@H](N)C(=O)[O-])C[C@H]1O[C@@H](n2cnc3c(N)ncnc32)[C@H](O)[C@@H]1O.O=S(=O)(O)CCCCS(=O)(=O)O (some centres unmarked) [SD4 Test 1, reference compound]
- stability of (SS)SAMe isomer content / diastereomeric purity versus starting value (FIG. 4) [1]: stable for longer

Molecule: SAMe inositol hexaphosphate [SAMe IP6]
- absorption (AUC) and plasma concentration of SAMe versus SAMe Pates [3]: better absorption and a higher plasma concentration of active ingredient
